From PubChem BioAssay AID206 (DTP/NCI, 2004)
Where “and” joins values, the source holds several entries; their conditions need not be identical. Identical values can stand only once. Results filed as inconclusive are left out.

System: nude mice, HT29 intrarenal xenograft, tumor weight T/C
Assay: NCI In Vivo Anticancer Drug Screen. Data for tumor model HT29;CX-1 Human Adenocarcinoma (MER+) (intrarenal inoculation) in NU/NU Swiss (nude) mice
Conditions: endpoint: mean tumor weight change, higher = larger tumour
In short: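 Tumor-bearing mice received test compound or vehicle, and tumor size or survival was recorded. Values are the treated-group measurement divided by the vehicle-treated control measurement.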

[1] = dose: 25.0 mg/kg/injection, schedule: Q04DX004 (sc), vehicle: saline with Tween-80
[2] = dose: 50.0 mg/kg/injection, schedule: Q04DX004 (sc), vehicle: saline with Tween-80
[3] = dose: 100.0 mg/kg/injection, schedule: Q04DX004 (sc), vehicle: saline with Tween-80
[4] = dose: 200.0 mg/kg/injection, schedule: Q04DX004 (sc), vehicle: saline with Tween-80
[5] = dose: 75.0 mg/kg/injection, schedule: Q04DX004 (sc), vehicle: saline with Tween-80
[6] = dose: 150.0 mg/kg/injection, schedule: Q04DX004 (sc), vehicle: saline with Tween-80
[7] = dose: 150.0 mg/kg/injection, schedule: Q04DX004 (sc), vehicle: Klucel (hydroxypropylcellulose) (HPC)
[8] = dose: 300.0 mg/kg/injection, schedule: Q04DX004 (sc), vehicle: Klucel (hydroxypropylcellulose) (HPC)
[9] = dose: 600.0 mg/kg/injection, schedule: Q04DX004 (sc), vehicle: Klucel (hydroxypropylcellulose) (HPC)

SMILES: CN(Cc1cnc2nc(N)nc(N)c2n1)c1ccc(C(=O)N[C@@H](CCC(=O)O)C(=O)O)cc1
- T/C (dose: 0.5 mg/kg/injection, schedule: Q01DX010 (sc), vehicle: sodium bicarbonate): 116 % of control
- T/C (dose: 1.0 mg/kg/injection, schedule: Q01DX010 (sc), vehicle: sodium bicarbonate): 41 % of control

SMILES: Nc1nc(=S)c2[nH]cnc2[nH]1
- T/C (dose: 0.39 mg/kg/injection, schedule: Q01DX010 (sc), vehicle: Klucel (hydroxypropylcellulose) (HPC)): 102 % of control
- T/C (dose: 0.78 mg/kg/injection, schedule: Q01DX010 (sc), vehicle: Klucel (hydroxypropylcellulose) (HPC)): 91 % of control

SMILES: CCC1(O)CC2CN(CCc3c([nH]c4ccccc34)C(C(=O)OC)(c3cc4c(cc3OC)N(C)C3C(O)(C(=O)NCCSSCCNC(=O)C5(O)C(O)C6(CC)C=CCN7CCC8(c9cc(C%10(C(=O)OC)CC%11CN(CCc%12c%10[nH]c%10ccccc%12%10)CC(O)(CC)C%11)c(OC)cc9N(C)C58)C76)C(O)C5(CC)C=CCN6CCC43C65)C2)C1 (configuration not stated)
- T/C (dose: 0.38 mg/kg/injection, schedule: Q04DX004 (sc), vehicle: suspension in saline): 85 % of control
- T/C (dose: 0.75 mg/kg/injection, schedule: Q04DX004 (sc), vehicle: saline): 39 % of control
- T/C (dose: 0.75 mg/kg/injection, schedule: Q04DX004 (sc), vehicle: suspension in saline): 84 % of control
- T/C (dose: 1.5 mg/kg/injection, schedule: Q04DX004 (sc), vehicle: saline): 22 % of control and 29 % of control
- T/C (dose: 1.5 mg/kg/injection, schedule: Q04DX004 (sc), vehicle: suspension in saline): 44 % of control
- T/C (dose: 3.0 mg/kg/injection, schedule: Q04DX004 (sc), vehicle: saline): -5 % of control
- T/C (dose: 3.0 mg/kg/injection, schedule: Q04DX004 (sc), vehicle: suspension in saline): 55 % of control
- T/C (dose: 6.0 mg/kg/injection, schedule: Q04DX004 (sc), vehicle: suspension in saline): 51 % of control

SMILES: CN=C(N)N/N=C(\C)c1ccc2c(c1)Cc1cc(/C(C)=N/NC(N)=NC)ccc1-2
- T/C [1]: 102 % of control
- T/C [2]: 53 % of control
- T/C [3]: 105 % of control
- T/C [4]: 50 % of control

SMILES: CN(C)CCN1C(=O)c2cccc3cc(N)cc(c23)C1=O
- T/C (dose: 64.0 mg/kg/injection, schedule: Q04DX004 (sc), vehicle: saline with Tween-80): 70 % of control

SMILES: O=c1[nH]c(=O)n(C2OC(CO)C(O)C2O)cc1F (configuration not stated)
- T/C (dose: 4.69 mg/kg/injection, schedule: Q04DX004 (sc), vehicle: saline): 34 % of control

SMILES: CCNC(=O)OCc1c(COC(=O)NCC)c(-c2ccc(Cl)c(Cl)c2)n2c1CCC2
- T/C [5]: 5 % of control and 19 % of control
- T/C [6]: 66 % of control

SMILES: C1=CCOCOC1
- T/C (dose: 37.5 mg/kg/injection, schedule: Q04DX004 (sc), vehicle: saline with Tween-80): 69 % of control
- T/C [5]: 70 % of control
- T/C [6]: 68 % of control
- T/C (dose: 300.0 mg/kg/injection, schedule: Q04DX004 (sc), vehicle: saline with Tween-80): 72 % of control

SMILES: Cc1c(N)nc(C(CC(N)=O)NCC(N)C(N)=O)nc1C(=O)NC(C(=O)NC(C)C(O)CC(=O)NC(C(=O)NC(OC1OC(C)C(N)C(O)C1O)C(O)c1nc(-c2nc(C(=O)NCCCC(N)CC(=O)NCCCNCCCCN)cs2)cs1)C(C)O)C(OC1OC(CO)C(O)C(O)C1OC1OC(CO)C(O)C(OC(N)=O)C1O)c1cnc[nH]1 (configuration not stated)
- T/C (dose: 8.0 mg/kg/injection, schedule: Q04DX004 (sc), vehicle: saline): 17 % of control
- T/C (dose: 16.0 mg/kg/injection, schedule: Q04DX004 (sc), vehicle: saline): 21 % of control

SMILES: CSc1ncnc2c1ncn2C1OC(CO)C(O)C1O (configuration not stated)
- T/C (dose: 37.5 mg/kg/injection, schedule: Q04DX004 (sc), vehicle: saline + alcohol): 74 % of control and 77 % of control and 80 % of control
- T/C (dose: 125.0 mg/kg/injection, schedule: Q04DX004 (sc), vehicle: saline + alcohol): 154 % of control
- T/C (dose: 175.0 mg/kg/injection, schedule: Q04DX004 (sc), vehicle: saline + alcohol): 65 % of control

SMILES: O/N=C/c1ccccc1O.O/N=C/c1ccccc1O.[Cu]
- T/C [1]: 76 % of control
- T/C [2]: 39 % of control
- T/C [3]: 43 % of control
- T/C [4]: 61 % of control

SMILES: Cc1nn(CCO)c(C)c1N=[N+]([O-])c1c(C)nn(CCO)c1C
- T/C (dose: 75.0 mg/kg/injection, schedule: Q04DX004 (sc), vehicle: Klucel (hydroxypropylcellulose) (HPC)): 68 % of control
- T/C [7]: 70 % of control
- T/C [8]: 44 % of control
- T/C [9]: 53 % of control
- T/C (dose: 1200.0 mg/kg/injection, schedule: Q04DX004 (sc), vehicle: Klucel (hydroxypropylcellulose) (HPC)): 102 % of control

SMILES: COc1ccc2[nH]c3ccc4cc[n+](CCN5CCC(C6CCN(CC[n+]7ccc8ccc9[nH]c%10ccc(OC)cc%10c9c8c7)CC6)CC5)cc4c3c2c1
- T/C [7]: 194 % of control
- T/C [8]: 189 % of control
- T/C [9]: 83 % of control

SMILES: Oc1ccc(SCc2ccc(NCc3ccccc3)cc2)cc1
- T/C (dose: 400.0 mg/kg/injection, schedule: Q01DX009 (sc), vehicle: saline with Tween-80): 50 % of control
- T/C (dose: 500.0 mg/kg/injection, schedule: Q01DX010 (sc), vehicle: saline with Tween-80): 90 % of control
- T/C (dose: 800.0 mg/kg/injection, schedule: Q01DX009 (sc), vehicle: saline with Tween-80): 84 % of control
- T/C (dose: 1000.0 mg/kg/injection, schedule: Q01DX010 (sc), vehicle: saline with Tween-80): 84 % of control
- T/C (dose: 1600.0 mg/kg/injection, schedule: Q01DX009 (sc), vehicle: saline with Tween-80): 49 % of control
- T/C (dose: 2000.0 mg/kg/injection, schedule: Q01DX010 (sc), vehicle: saline with Tween-80): 54 % of control

SMILES: OC1OC2COC(c3ccccc3)OC2C(O)C1O (configuration not stated)
- T/C (dose: 200.0 mg/kg/injection, schedule: Q04DX004 (sc), vehicle: water): 94 % of control
- T/C (dose: 400.0 mg/kg/injection, schedule: Q04DX004 (sc), vehicle: water): 118 % of control
- T/C (dose: 800.0 mg/kg/injection, schedule: Q04DX004 (sc), vehicle: water): 87 % of control
- T/C (dose: 1600.0 mg/kg/injection, schedule: Q04DX004 (sc), vehicle: water): 118 % of control

SMILES: Nc1ccn(C2OC(CO)C(O)C2O)c(=O)n1 (configuration not stated)
- T/C (dose: 15.63 mg/kg/injection, schedule: Q01DX010 (sc), vehicle: water): 100 % of control
- T/C (dose: 31.25 mg/kg/injection, schedule: Q01DX010 (sc), vehicle: water): 102 % of control
- T/C (dose: 500.0 mg/kg/injection, schedule: Q04DX004 (sc), vehicle: saline): 62 % of control
- T/C (dose: 600.0 mg/kg/injection, schedule: Q04DX004 (sc), vehicle: saline): 77 % of control
- T/C (dose: 1000.0 mg/kg/injection, schedule: Q04DX004 (sc), vehicle: saline): 19 % of control

SMILES: CCOC(=O)c1c[nH]c2oc(/C=N/N3CC(CN4CCOCC4)OC3=O)cc2c1=O (configuration not stated)
- T/C (dose: 50.0 mg/kg/injection, schedule: Q01DX010 (sc), vehicle: saline): 69 % of control
- T/C (dose: 100.0 mg/kg/injection, schedule: Q01DX010 (sc), vehicle: saline): 124 % of control
- T/C (dose: 200.0 mg/kg/injection, schedule: Q01DX010 (sc), vehicle: saline): 86 % of control

SMILES: CC1=C(C)C(=O)O[C@@H]([C@](C)(O)[C@]2(O)CC[C@@]3(O)[C@@H]4C[C@H]5O[C@]56[C@@H](O)C=CC(=O)[C@]6(C)[C@H]4CC[C@]23C)C1
- T/C (dose: 4.0 mg/kg/injection, schedule: Q01DX010 (sc), vehicle: saline): 169 % of control
- T/C (dose: 64.0 mg/kg/injection, schedule: Q01DX010 (sc), vehicle: saline): 46 % of control

SMILES: COc1cc2c(c(OC)c1OC)-c1ccc(OC)c(=O)cc1[C@@H](NC(=O)CCl)CC2
- T/C (dose: 0.63 mg/kg/injection, schedule: Q04DX004 (sc), vehicle: saline with Tween-80): 60 % of control
- T/C (dose: 1.25 mg/kg/injection, schedule: Q04DX004 (sc), vehicle: saline with Tween-80): 32 % of control
- T/C (dose: 2.5 mg/kg/injection, schedule: Q04DX004 (sc), vehicle: saline with Tween-80): 57 % of control

SMILES: CC(Cc1ccc(O)cc1)NCC(O)c1ccc(O)c(O)c1 (configuration not stated)
- T/C [3]: 106 % of control
- T/C [4]: 91 % of control
- T/C (dose: 400.0 mg/kg/injection, schedule: Q04DX004 (sc), vehicle: saline with Tween-80): 89 % of control
- T/C (dose: 800.0 mg/kg/injection, schedule: Q04DX004 (sc), vehicle: saline with Tween-80): 80 % of control

SMILES: O=Cc1ccccc1
- T/C (dose: 200.0 mg/kg/injection, schedule: Q04DX004 (sc), vehicle: Klucel (hydroxypropylcellulose) (HPC)): 119 % of control
- T/C (dose: 400.0 mg/kg/injection, schedule: Q04DX004 (sc), vehicle: Klucel (hydroxypropylcellulose) (HPC)): 107 % of control

SMILES: O=C1C=C(C2OC(CO)C(O)C2O)C(=O)N1 (configuration not stated)
- T/C (dose: 6.25 mg/kg/injection, schedule: Q01DX010 (sc), vehicle: saline): 78 % of control
- T/C (dose: 12.5 mg/kg/injection, schedule: Q01DX010 (sc), vehicle: saline): 78 % of control
